Measured values taken from patent US5250683A, “Certain substituted taxanes and pharmaceutical compositions containing them” (Florida State University, priority 1992, dated 1993).

These compounds were tested on tubulin (assay: Tubulin binding assay (Tubulin Assay), method of Parness et al.). Settings: compared to taxol and taxotere.

In order of rising “Tubulin Assay Init. Peak” value:
1. CC(=O)O[C@H]1C(=O)[C@@]2(C)[C@H]([C@H](OC(=O)c3ccccc3)[C@]3(O)C[C@H](OC(=O)[C@H](O)[C@@H](NC(=O)c4ccccc4)c4ccc5ccccc5c4)C(C)=C1C3(C)C)[C@]1(OC(C)=O)CO[C@@H]1C[C@@H]2O [Example 2, 3'-desphenyl-3'-(2-naphthyl) taxol]  0
2. CC(=O)O[C@H]1C(=O)[C@@]2(C)[C@H]([C@H](OC(=O)c3ccccc3)[C@]3(O)C[C@H](OC(=O)[C@H](O)[C@@H](NC(=O)c4ccccc4)c4cccc5ccccc45)C(C)=C1C3(C)C)[C@]1(OC(C)=O)CO[C@@H]1C[C@@H]2O [Example 1, 3'-desphenyl-3'-(1-naphthyl) taxol]  0
3. COc1ccc([C@H](NC(=O)c2ccccc2)[C@@H](O)C(=O)O[C@H]2C[C@@]3(O)[C@@H](OC(=O)c4ccccc4)[C@@H]4[C@]5(OC(C)=O)CO[C@@H]5C[C@H](O)[C@@]4(C)C(=O)[C@H](OC(C)=O)C(=C2C)C3(C)C)cc1OC [Example 7, 3'-desphenyl-3'-(3,4-dimethoxyphenyl) taxol]  11
4. COc1ccc([C@H](NC(=O)c2ccc(Cl)cc2)[C@@H](O)C(=O)O[C@H]2C[C@@]3(O)[C@@H](OC(=O)c4ccccc4)[C@@H]4[C@]5(OC(C)=O)CO[C@@H]5C[C@H](O)[C@@]4(C)C(=O)[C@H](OC(C)=O)C(=C2C)C3(C)C)cc1 [Example 29, N-debenzoyl-N-(4-chlorobenzoyl)-3'-desphenyl-3'-(4-methoxyphenyl) taxol]  42
5. COc1ccc([C@H](NC(=O)c2ccc(Br)cc2)[C@@H](O)C(=O)O[C@H]2C[C@@]3(O)[C@@H](OC(=O)c4ccccc4)[C@@H]4[C@]5(OC(C)=O)CO[C@@H]5C[C@H](O)[C@@]4(C)C(=O)[C@H](OC(C)=O)C(=C2C)C3(C)C)cc1 [Example 30, N-debenzoyl-N-(4-bromobenzoyl)-3'-desphenyl-3'-(4-methoxyphenyl) taxol]  44
6. COc1ccc([C@H](NC(=O)c2ccc(F)cc2)[C@@H](O)C(=O)O[C@H]2C[C@@]3(O)[C@@H](OC(=O)c4ccccc4)[C@@H]4[C@]5(OC(C)=O)CO[C@@H]5C[C@H](O)[C@@]4(C)C(=O)[C@H](OC(C)=O)C(=C2C)C3(C)C)cc1 [Example 21, N-debenzoyl-N-(4-fluorobenzoyl)-3'-desphenyl-3'-(4-methoxyphenyl) taxol]  45
7. COc1ccc(C(=O)N[C@@H](c2ccc(OC)cc2)[C@@H](O)C(=O)O[C@H]2C[C@@]3(O)[C@@H](OC(=O)c4ccccc4)[C@@H]4[C@]5(OC(C)=O)CO[C@@H]5C[C@H](O)[C@@]4(C)C(=O)[C@H](OC(C)=O)C(=C2C)C3(C)C)cc1 [Example 32, N-debenzoyl-N-(4-methoxybenzoyl)-3'-desphenyl-3'-(4-methoxyphenyl) taxol]  51
8. CC(=O)O[C@H]1C(=O)[C@@]2(C)[C@H]([C@H](OC(=O)c3ccccc3)[C@]3(O)C[C@H](OC(=O)[C@H](O)[C@@H](NC(=O)c4ccc(Br)cc4)c4ccc(Cl)cc4)C(C)=C1C3(C)C)[C@]1(OC(C)=O)CO[C@@H]1C[C@@H]2O [Example 25, N-debenzoyl-N-(4-bromobenzoyl)-3'-desphenyl-3'-(4-chlorophenyl) taxol]  60
9. CC(=O)O[C@H]1C(=O)[C@@]2(C)[C@H]([C@H](OC(=O)c3ccccc3)[C@]3(O)C[C@H](OC(=O)[C@H](O)[C@@H](NC(=O)c4ccc(F)cc4)c4ccc(Cl)cc4)C(C)=C1C3(C)C)[C@]1(OC(C)=O)CO[C@@H]1C[C@@H]2O [Example 23, N-debenzoyl-N-(4-fluorobenzoyl)-3'-desphenyl-3'-(4-chlorophenyl) taxol]  63
10. CC(=O)O[C@H]1C(=O)[C@@]2(C)[C@H]([C@H](OC(=O)c3ccccc3)[C@]3(O)C[C@H](OC(=O)[C@H](O)[C@@H](NC(=O)c4ccc(Br)cc4)c4ccccc4)C(C)=C1C3(C)C)[C@]1(OC(C)=O)CO[C@@H]1C[C@@H]2O [Example 11, N-debenzoyl-N-(4-bromobenzoyl) taxol]  67
11. CC(=O)O[C@H]1C(=O)[C@@]2(C)[C@H]([C@H](OC(=O)c3ccccc3)[C@]3(O)C[C@H](OC(=O)[C@H](O)[C@@H](NC(=O)c4ccc(C(C)(C)C)cc4)c4ccccc4)C(C)=C1C3(C)C)[C@]1(OC(C)=O)CO[C@@H]1C[C@@H]2O [Example 13, N-debenzoyl-N-(4-t-butylbenzoyl) taxol]  67
12. CC(=O)O[C@H]1C(=O)[C@@]2(C)[C@H]([C@H](OC(=O)c3ccccc3)[C@]3(O)C[C@H](OC(=O)[C@H](O)[C@@H](NC(=O)c4ccc(Cl)cc4)c4ccccc4)C(C)=C1C3(C)C)[C@]1(OC(C)=O)CO[C@@H]1C[C@@H]2O [Example 10, N-debenzoyl-N-(4-chlorobenzoyl) taxol]  75
13. CC(=O)O[C@H]1C(=O)[C@@]2(C)[C@H]([C@H](OC(=O)c3ccccc3)[C@]3(O)C[C@H](OC(=O)[C@H](O)[C@@H](NC(=O)c4ccc(C)cc4)c4ccc(F)cc4)C(C)=C1C3(C)C)[C@]1(OC(C)=O)CO[C@@H]1C[C@@H]2O [Example 20, N-debenzoyl-N-(4-methylbenzoyl)-3'-desphenyl-3'-(4-fluorophenyl) taxol]  85
14. CC(=O)O[C@H]1C(=O)[C@@]2(C)[C@H]([C@H](OC(=O)c3ccccc3)[C@]3(O)C[C@H](OC(=O)[C@H](O)[C@@H](NC(=O)c4ccccc4)c4ccc(F)cc4)C(C)=C1C3(C)C)[C@]1(OC(C)=O)CO[C@@H]1C[C@@H]2O [Example 9, 3'-desphenyl-3'-(4-fluorophenyl) taxol]  100
15. COc1ccc(C(=O)N[C@@H](c2ccc(F)cc2)[C@@H](O)C(=O)O[C@H]2C[C@@]3(O)[C@@H](OC(=O)c4ccccc4)[C@@H]4[C@]5(OC(C)=O)CO[C@@H]5C[C@H](O)[C@@]4(C)C(=O)[C@H](OC(C)=O)C(=C2C)C3(C)C)cc1 [Example 28, N-debenzoyl-N-(4-methoxybenzoyl)-3'-desphenyl-3'-(4-fluorophenyl) taxol]  106
16. CC(=O)O[C@H]1C(=O)[C@@]2(C)[C@H]([C@H](OC(=O)c3ccccc3)[C@]3(O)C[C@H](OC(=O)[C@H](O)[C@@H](NC(=O)c4ccc(C)cc4)c4ccccc4)C(C)=C1C3(C)C)[C@]1(OC(C)=O)CO[C@@H]1C[C@@H]2O [Example 12, N-debenzoyl-N-(4-methylbenzoyl) taxol]  107
17. CC(=O)O[C@H]1C(=O)[C@@]2(C)[C@H]([C@H](OC(=O)c3ccccc3)[C@]3(O)C[C@H](OC(=O)[C@H](O)[C@@H](NC(=O)c4ccccc4)c4ccc([N+](=O)[O-])cc4)C(C)=C1C3(C)C)[C@]1(OC(C)=O)CO[C@@H]1C[C@@H]2O [Example 8, 3'-desphenyl-3'-(4-nitrophenyl) taxol]  114

In order of rising “Tubulin Assay Rel. Rate” value:
1. CC(=O)O[C@H]1C(=O)[C@@]2(C)[C@H]([C@H](OC(=O)c3ccccc3)[C@]3(O)C[C@H](OC(=O)[C@H](O)[C@@H](NC(=O)c4ccccc4)c4ccc5ccccc5c4)C(C)=C1C3(C)C)[C@]1(OC(C)=O)CO[C@@H]1C[C@@H]2O [Example 2, 3'-desphenyl-3'-(2-naphthyl) taxol]  0
2. CC(=O)O[C@H]1C(=O)[C@@]2(C)[C@H]([C@H](OC(=O)c3ccccc3)[C@]3(O)C[C@H](OC(=O)[C@H](O)[C@@H](NC(=O)c4ccccc4)c4cccc5ccccc45)C(C)=C1C3(C)C)[C@]1(OC(C)=O)CO[C@@H]1C[C@@H]2O [Example 1, 3'-desphenyl-3'-(1-naphthyl) taxol]  0
3. COc1ccc([C@H](NC(=O)c2ccccc2)[C@@H](O)C(=O)O[C@H]2C[C@@]3(O)[C@@H](OC(=O)c4ccccc4)[C@@H]4[C@]5(OC(C)=O)CO[C@@H]5C[C@H](O)[C@@]4(C)C(=O)[C@H](OC(C)=O)C(=C2C)C3(C)C)cc1OC [Example 7, 3'-desphenyl-3'-(3,4-dimethoxyphenyl) taxol]  26
4. COc1ccc([C@H](NC(=O)c2ccc(Br)cc2)[C@@H](O)C(=O)O[C@H]2C[C@@]3(O)[C@@H](OC(=O)c4ccccc4)[C@@H]4[C@]5(OC(C)=O)CO[C@@H]5C[C@H](O)[C@@]4(C)C(=O)[C@H](OC(C)=O)C(=C2C)C3(C)C)cc1 [Example 30, N-debenzoyl-N-(4-bromobenzoyl)-3'-desphenyl-3'-(4-methoxyphenyl) taxol]  70
5. COc1ccc([C@H](NC(=O)c2ccc(Cl)cc2)[C@@H](O)C(=O)O[C@H]2C[C@@]3(O)[C@@H](OC(=O)c4ccccc4)[C@@H]4[C@]5(OC(C)=O)CO[C@@H]5C[C@H](O)[C@@]4(C)C(=O)[C@H](OC(C)=O)C(=C2C)C3(C)C)cc1 [Example 29, N-debenzoyl-N-(4-chlorobenzoyl)-3'-desphenyl-3'-(4-methoxyphenyl) taxol]  72
6. COc1ccc(C(=O)N[C@@H](c2ccc(OC)cc2)[C@@H](O)C(=O)O[C@H]2C[C@@]3(O)[C@@H](OC(=O)c4ccccc4)[C@@H]4[C@]5(OC(C)=O)CO[C@@H]5C[C@H](O)[C@@]4(C)C(=O)[C@H](OC(C)=O)C(=C2C)C3(C)C)cc1 [Example 32, N-debenzoyl-N-(4-methoxybenzoyl)-3'-desphenyl-3'-(4-methoxyphenyl) taxol]  81
7. COc1ccc([C@H](NC(=O)c2ccc(F)cc2)[C@@H](O)C(=O)O[C@H]2C[C@@]3(O)[C@@H](OC(=O)c4ccccc4)[C@@H]4[C@]5(OC(C)=O)CO[C@@H]5C[C@H](O)[C@@]4(C)C(=O)[C@H](OC(C)=O)C(=C2C)C3(C)C)cc1 [Example 21, N-debenzoyl-N-(4-fluorobenzoyl)-3'-desphenyl-3'-(4-methoxyphenyl) taxol]  81
8. CC(=O)O[C@H]1C(=O)[C@@]2(C)[C@H]([C@H](OC(=O)c3ccccc3)[C@]3(O)C[C@H](OC(=O)[C@H](O)[C@@H](NC(=O)c4ccc(Br)cc4)c4ccc(Cl)cc4)C(C)=C1C3(C)C)[C@]1(OC(C)=O)CO[C@@H]1C[C@@H]2O [Example 25, N-debenzoyl-N-(4-bromobenzoyl)-3'-desphenyl-3'-(4-chlorophenyl) taxol]  83
9. CC(=O)O[C@H]1C(=O)[C@@]2(C)[C@H]([C@H](OC(=O)c3ccccc3)[C@]3(O)C[C@H](OC(=O)[C@H](O)[C@@H](NC(=O)c4ccc(C(C)(C)C)cc4)c4ccccc4)C(C)=C1C3(C)C)[C@]1(OC(C)=O)CO[C@@H]1C[C@@H]2O [Example 13, N-debenzoyl-N-(4-t-butylbenzoyl) taxol]  85
10. CC(=O)O[C@H]1C(=O)[C@@]2(C)[C@H]([C@H](OC(=O)c3ccccc3)[C@]3(O)C[C@H](OC(=O)[C@H](O)[C@@H](NC(=O)c4ccc(Br)cc4)c4ccccc4)C(C)=C1C3(C)C)[C@]1(OC(C)=O)CO[C@@H]1C[C@@H]2O [Example 11, N-debenzoyl-N-(4-bromobenzoyl) taxol]  88
11. CC(=O)O[C@H]1C(=O)[C@@]2(C)[C@H]([C@H](OC(=O)c3ccccc3)[C@]3(O)C[C@H](OC(=O)[C@H](O)[C@@H](NC(=O)c4ccc(F)cc4)c4ccc(Cl)cc4)C(C)=C1C3(C)C)[C@]1(OC(C)=O)CO[C@@H]1C[C@@H]2O [Example 23, N-debenzoyl-N-(4-fluorobenzoyl)-3'-desphenyl-3'-(4-chlorophenyl) taxol]  88
12. CC(=O)O[C@H]1C(=O)[C@@]2(C)[C@H]([C@H](OC(=O)c3ccccc3)[C@]3(O)C[C@H](OC(=O)[C@H](O)[C@@H](NC(=O)c4ccc(Cl)cc4)c4ccccc4)C(C)=C1C3(C)C)[C@]1(OC(C)=O)CO[C@@H]1C[C@@H]2O [Example 10, N-debenzoyl-N-(4-chlorobenzoyl) taxol]  90
13. COc1ccc(C(=O)N[C@@H](c2ccc(F)cc2)[C@@H](O)C(=O)O[C@H]2C[C@@]3(O)[C@@H](OC(=O)c4ccccc4)[C@@H]4[C@]5(OC(C)=O)CO[C@@H]5C[C@H](O)[C@@]4(C)C(=O)[C@H](OC(C)=O)C(=C2C)C3(C)C)cc1 [Example 28, N-debenzoyl-N-(4-methoxybenzoyl)-3'-desphenyl-3'-(4-fluorophenyl) taxol]  97
14. CC(=O)O[C@H]1C(=O)[C@@]2(C)[C@H]([C@H](OC(=O)c3ccccc3)[C@]3(O)C[C@H](OC(=O)[C@H](O)[C@@H](NC(=O)c4ccc(C)cc4)c4ccc(F)cc4)C(C)=C1C3(C)C)[C@]1(OC(C)=O)CO[C@@H]1C[C@@H]2O [Example 20, N-debenzoyl-N-(4-methylbenzoyl)-3'-desphenyl-3'-(4-fluorophenyl) taxol]  98
15. CC(=O)O[C@H]1C(=O)[C@@]2(C)[C@H]([C@H](OC(=O)c3ccccc3)[C@]3(O)C[C@H](OC(=O)[C@H](O)[C@@H](NC(=O)c4ccccc4)c4ccc([N+](=O)[O-])cc4)C(C)=C1C3(C)C)[C@]1(OC(C)=O)CO[C@@H]1C[C@@H]2O [Example 8, 3'-desphenyl-3'-(4-nitrophenyl) taxol]  105
16. CC(=O)O[C@H]1C(=O)[C@@]2(C)[C@H]([C@H](OC(=O)c3ccccc3)[C@]3(O)C[C@H](OC(=O)[C@H](O)[C@@H](NC(=O)c4ccc(C)cc4)c4ccccc4)C(C)=C1C3(C)C)[C@]1(OC(C)=O)CO[C@@H]1C[C@@H]2O [Example 12, N-debenzoyl-N-(4-methylbenzoyl) taxol]  110
